Source: patent US4665078A, “2-(3-amino-5-halo-2-pyridylalkylamino)-pyrimidones useful as histamine H1-antagonists” (Smith Kline & French Laboratories Limited, priority 1983, dated 1987)

Key:
histamine H1-receptor [1] = test: inhibition of H1-agonist induced reduction of blood pressure in the anaesthetised cat; format: in vivo; conditions: intravenous (femoral veins), 2-(2-aminoethyl)pyridine-induced reduction in blood pressure
Experimental: Cats of either sex weighing between 2 and 3 kg were starved overnight and anaesthetised with sodium pentabarbitone (60 mg/kg i.p.). The trachea was cannulated and blood pressure was measured in a femoral artery. The compound under investigation was administered by cannulae in the right and left femoral veins. Anaesthetic was administered as required into one brachial vein. Dose-response curves were constructed by administering a standard H1 -agonist, 2-(2-aminoethyl)pyridine in increasing dose from 10^-8 mol/kg to 10^-5 mol/kg. The 2-(2-aminoethyl)pyridine-induced reduction in blood pressure was measured. The effect of the antagonists can be quantified by displacement of the 2-(2-aminoethyl)pyridine dose-response curve expressed as a dose-ratio. The compounds of Examples 1 and 2 caused displacement of the dose-responsecurves with a dose-ratio of 10 at doses of 0.06 and 0.0058 micromole/kg respectively.

histamine H1-receptor [2] = target: T1, histamine H1-receptor (Cavia porcellus, UniProt P31389); test: guinea pig ileum test (in vitro histamine H1-antagonist activity); conditions: isolated guinea pig ileum, histamine-induced contraction, 8 min contact, 30° C.; read-out: pA2 value (converted)
T1 construct: an isolated portion of the guinea pig ileum is secured under tension; from tissue; host or cells: isolated guinea pig ileum
T1 sequence (P31389 whole entry): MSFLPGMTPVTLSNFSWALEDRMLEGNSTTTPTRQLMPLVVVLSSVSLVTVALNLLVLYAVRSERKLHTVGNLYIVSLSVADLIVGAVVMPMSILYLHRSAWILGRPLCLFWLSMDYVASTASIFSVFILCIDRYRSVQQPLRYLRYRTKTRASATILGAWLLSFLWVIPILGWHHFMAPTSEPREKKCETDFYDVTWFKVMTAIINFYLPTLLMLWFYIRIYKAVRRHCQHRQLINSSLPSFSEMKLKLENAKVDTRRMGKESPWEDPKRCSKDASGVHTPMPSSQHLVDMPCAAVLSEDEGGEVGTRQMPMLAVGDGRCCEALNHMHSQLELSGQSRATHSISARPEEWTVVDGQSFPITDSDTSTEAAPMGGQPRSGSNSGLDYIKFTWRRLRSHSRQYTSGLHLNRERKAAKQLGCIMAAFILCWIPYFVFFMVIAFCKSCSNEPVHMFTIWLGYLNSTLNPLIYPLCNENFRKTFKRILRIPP
Experimental: In this test an isolated portion of the guinea pig ileum is secured under tension (500 mg) between an anchorage and a transducer in a 10 ml tissue bath and immersed in magnesium free Tyrode solution with constant aeration at a temperature of 30° C. The output from the transducer is amplified. The amplified output is in turn fed to a flat bed recorder. Measured amounts of histamine are added to the tissue bath so that the histamine concentration increases step-wise until the force of the contraction reaches a maximum. The tissue bath is washed out and filled with fresh magnesium free Tyrode solution containing compound under test. The solution is left in contact with the tissue for 8 min. and measured amounts of histamine are added again until a maximum contraction is recorded. The assay is repeated with increasing concentrations of test compound and the dose of histamine giving 50% of maximum contraction is noted. A dose ratio (DR) was calculated by comparing the concentrations of histamine required to produce 50% maximum response in the absence and in the presence of the antagonist. A plot of Log DR-1 against Log D (the concentration of compound under test) is made and the point of intersection with the Log (DR-1) ordinate is taken as the measure of the activity (pA2 value).

histamine H2-receptor = target: T2, histamine H2-receptor (Cavia porcellus, UniProt P47747); test: guinea pig atrium test (in vitro histamine H2-antagonist activity); conditions: isolated guinea pig right atrium, histamine-induced rate of beating, 60 min contact, 37° C.; read-out: pA2 value (converted)
T2 construct: a spontaneously beating isolated portion of the guinea pig right atrium is secured under tension; from tissue; host or cells: isolated guinea pig right atrium
T2 sequence (P47747 whole entry): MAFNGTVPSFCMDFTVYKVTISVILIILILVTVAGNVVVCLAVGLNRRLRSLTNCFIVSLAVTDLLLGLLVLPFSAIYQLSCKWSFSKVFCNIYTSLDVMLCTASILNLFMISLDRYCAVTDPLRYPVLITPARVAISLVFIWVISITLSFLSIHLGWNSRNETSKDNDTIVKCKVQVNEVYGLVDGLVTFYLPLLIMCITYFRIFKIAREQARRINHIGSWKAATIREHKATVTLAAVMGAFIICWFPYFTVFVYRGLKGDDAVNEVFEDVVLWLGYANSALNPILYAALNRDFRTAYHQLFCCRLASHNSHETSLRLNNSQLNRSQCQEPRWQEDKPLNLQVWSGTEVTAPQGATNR
Experimental: In this test a spontaneously beating isolated portion of the guinea pig right atrium is secured under tension (300 mg) between an anchorage and a transducer in a 15 ml tissue bath and immersed in McEwens solution with constant aeration at a temperature of 37° C. The output from the transducer is amplified. Output is in turn fed to a flat bed recorder. Measured amounts of histamine are added to the tissue bath so that the histamine concentration increases step-wise until the rate of beating reaches a maximum. The tissue bath is washed out and filled with fresh McEwens solution containing compound under test. The solution is left in contact with the tissue for 60 min. and measured amounts of histamine are added again until a maximum rate is recorded. The assay is repeated with increasing concentrations of test compound and the dose of histamine giving 50% of maximum rate is noted. A dose ratio (DR) was calculated by comparing the concentrations of histamine required to produce 50% maximum response in the absence and in the presence of the antagonist. A plot of Log DR-1 against Log D (the concentration of compound under test) is made and the point of intersection with the Log (DR-1) ordinate is taken as the measure of the activity (pA2 value).

histamine H1-receptor [3] = target: T1, histamine H1-receptor; test: inhibition of histamine induced bronchoconstriction in anaesthetised guinea pigs; format: in vivo; conditions: i.v., anaesthetised guinea pig, histamine curve 5 minutes after antagonist
Experimental: Guinea pigs of either sex are anesthetised by intraperitoneal injection of sodium pentobarbitone, 90 mg/kg. The trachea is cannulated. The animal is respired artificially with a fixed volume of air just adequate to inflate the lungs. The pressure needed to inflate the lungs is monitored from the respiratory system using a low pressure transducer. Intranvenous injection of histamine causes dose-dependent increases in the pressure to inflate the lungs reflecting the bronchoconstrictor action of histamine. Responses to histamine can be antagonised using histamine H1 -receptor antagonists.
Dose-response curves to histamine are established at 20, 40, 80, 160 and 320 nmols/kg. Antagonists are then administered by intravenous injection and 5 minutes later a new histamine dose-response curve is established increasing the doses of histamine as necessary. The effect of the antagonist can be quantified by the displacement, to the right, of the histamine dose-response curve, expressed as a dose-ratio. A series of doses of antagonists may be given to each animal allowing calculation of dose-ratios for each dose of antagonist. The compounds of Examples 1 and 2 hereafter cause displacement of histamine dose-response curves with a dose-ratio of 10 at doses of less than 0.8 micromole kg^-1 i.v.

Structure (SMILES) | dose causing displacement of the 2-(2-aminoethyl)pyridine dose-response curve with a dose-ratio of 10 (histamine H1-receptor [1]) [µmol/kg] | Kb (histamine H1-receptor [2]) [nM] | Kb (histamine H2-receptor) [nM] | dose causing displacement of histamine dose-response curves with a dose-ratio of 10 (histamine H1-receptor [3])
Cc1ccc(Cc2cnc(NCCCCc3ncc(Br)cc3C)[nH]c2=O)cn1 [2-[4-(5-bromo-3-methylpyrid-2-yl)butylamino]-5-(6-methylpyrid-3-ylmethyl)-4-pyrimidone, reference compound] | 0.215 |  |  | 
Cc1ccc(Cc2cnc(NCCCCc3ncc(Br)cc3N)[nH]c2=O)cn1 [Example 1, 2-[4-(5-bromo-3-aminopyrid-2-yl)butylamino]-5-(6-methylpyrid-3-ylmethyl) 4-pyrimidone] | 0.06 | < 10 | > 1000 | less than 0.8 micromole kg^-1
Nc1cc(Br)cnc1CCCCNc1ncc(Cc2cc[n+]([O-])cc2)c(=O)[nH]1 [Example 2, 2-[4-(5-bromo-3-aminopyrid-2yl)butylamino]-5-(N-oxopyrid-4-ylmethyl)-4-pyrimidone] | 0.0058 | < 10 | > 1000 | less than 0.8 micromole kg^-1
